# Assay results taken from patent US12522583B2, “Benzimidazole derivatives and aza-benzimidazole derivatives as Janus kinase 2 inhibitors and uses thereof” (Dana-Farber Cancer Institute, Inc., priority 2018, dated 2026).
# Key:
# Test in all cases: KINOMEscan
# Type in all cases: binding
# MLK2 = MLK2 (Homo sapiens (Human), UniProt Q02779); conditions: read-out: percent control
# Excerpt: (§1) Example 2. In Vitro Kinase Selectivity Profiling of the Compounds of the Present Disclosure
# LRRK2(G20195) = LRRK2(G20195) (Homo sapiens (Human), UniProt Q5S007, G2019S); conditions: read-out: percent control
# Excerpt: as §1
# KIT(V559D) = KIT(V559D) (Homo sapiens (Human), UniProt P10721, V559D); conditions: read-out: percent control
# Chain of KIT(V559D) (P10721 26-976 V559D): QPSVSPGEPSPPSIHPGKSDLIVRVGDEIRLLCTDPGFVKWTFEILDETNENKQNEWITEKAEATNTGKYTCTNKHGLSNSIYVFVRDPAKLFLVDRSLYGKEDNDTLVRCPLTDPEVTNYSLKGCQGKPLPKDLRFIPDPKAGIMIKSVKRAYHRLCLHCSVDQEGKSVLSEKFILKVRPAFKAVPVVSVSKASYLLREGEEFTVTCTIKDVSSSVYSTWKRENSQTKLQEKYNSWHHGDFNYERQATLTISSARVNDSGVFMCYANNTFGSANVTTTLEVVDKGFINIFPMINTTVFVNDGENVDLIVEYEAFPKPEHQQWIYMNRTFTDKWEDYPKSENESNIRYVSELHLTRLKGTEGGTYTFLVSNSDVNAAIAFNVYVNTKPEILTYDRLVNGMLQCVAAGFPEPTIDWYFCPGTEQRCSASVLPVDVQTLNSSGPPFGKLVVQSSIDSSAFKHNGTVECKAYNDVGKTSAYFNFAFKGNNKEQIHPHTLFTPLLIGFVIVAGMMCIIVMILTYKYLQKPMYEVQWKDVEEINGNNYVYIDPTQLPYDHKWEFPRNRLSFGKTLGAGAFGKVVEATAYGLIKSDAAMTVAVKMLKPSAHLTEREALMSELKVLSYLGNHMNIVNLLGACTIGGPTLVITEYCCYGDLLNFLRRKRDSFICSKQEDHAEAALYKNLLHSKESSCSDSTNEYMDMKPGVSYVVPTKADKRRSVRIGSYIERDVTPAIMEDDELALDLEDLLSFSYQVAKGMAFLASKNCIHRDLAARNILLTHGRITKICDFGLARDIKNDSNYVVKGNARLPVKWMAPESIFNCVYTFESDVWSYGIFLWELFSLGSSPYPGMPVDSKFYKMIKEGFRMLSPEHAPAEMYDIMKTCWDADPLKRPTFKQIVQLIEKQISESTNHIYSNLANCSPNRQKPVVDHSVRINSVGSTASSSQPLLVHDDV
# Excerpt: as §1
# WNK1 = WNK1 (Homo sapiens (Human), UniProt Q9H4A3); conditions: read-out: percent control
# Excerpt: as §1
# TIE1 = TIE1 (Homo sapiens (Human), UniProt P35590); conditions: read-out: percent control
# Excerpt: as §1
# TRKB = TRKB (Homo sapiens (Human), UniProt Q16620); conditions: read-out: percent control
# Excerpt: as §1
# WEE2 = WEE2 (Homo sapiens (Human), UniProt P0C1S8); conditions: read-out: percent control
# Excerpt: as §1
# p38-beta = p38-beta (Homo sapiens (Human), UniProt Q15759); conditions: read-out: percent control
# Excerpt: as §1
# PRKD3 = PRKD3 (Homo sapiens (Human), UniProt O94806); conditions: read-out: percent control
# Excerpt: as §1
# p38-gamma = p38-gamma (Homo sapiens (Human), UniProt P53778); conditions: read-out: percent control
# Chain of p38-gamma (P53778 whole entry): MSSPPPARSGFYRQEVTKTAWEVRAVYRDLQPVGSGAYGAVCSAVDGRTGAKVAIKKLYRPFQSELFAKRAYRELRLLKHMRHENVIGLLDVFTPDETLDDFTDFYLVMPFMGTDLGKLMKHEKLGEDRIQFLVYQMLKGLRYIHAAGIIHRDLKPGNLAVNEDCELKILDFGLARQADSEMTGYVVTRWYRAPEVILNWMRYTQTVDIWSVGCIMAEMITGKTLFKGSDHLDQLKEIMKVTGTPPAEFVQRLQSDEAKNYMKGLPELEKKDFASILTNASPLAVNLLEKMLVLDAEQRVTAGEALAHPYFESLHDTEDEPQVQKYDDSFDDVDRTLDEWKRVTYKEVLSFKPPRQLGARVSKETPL
# Excerpt: as §1
# PIK3CA(E542K) = PIK3CA(E542K) (Homo sapiens (Human), UniProt P42336, E542K); conditions: read-out: percent control
# Excerpt: as §1
# TEC = TEC (Homo sapiens (Human), UniProt P42680); conditions: read-out: percent control
# Chain of TEC (P42680 whole entry): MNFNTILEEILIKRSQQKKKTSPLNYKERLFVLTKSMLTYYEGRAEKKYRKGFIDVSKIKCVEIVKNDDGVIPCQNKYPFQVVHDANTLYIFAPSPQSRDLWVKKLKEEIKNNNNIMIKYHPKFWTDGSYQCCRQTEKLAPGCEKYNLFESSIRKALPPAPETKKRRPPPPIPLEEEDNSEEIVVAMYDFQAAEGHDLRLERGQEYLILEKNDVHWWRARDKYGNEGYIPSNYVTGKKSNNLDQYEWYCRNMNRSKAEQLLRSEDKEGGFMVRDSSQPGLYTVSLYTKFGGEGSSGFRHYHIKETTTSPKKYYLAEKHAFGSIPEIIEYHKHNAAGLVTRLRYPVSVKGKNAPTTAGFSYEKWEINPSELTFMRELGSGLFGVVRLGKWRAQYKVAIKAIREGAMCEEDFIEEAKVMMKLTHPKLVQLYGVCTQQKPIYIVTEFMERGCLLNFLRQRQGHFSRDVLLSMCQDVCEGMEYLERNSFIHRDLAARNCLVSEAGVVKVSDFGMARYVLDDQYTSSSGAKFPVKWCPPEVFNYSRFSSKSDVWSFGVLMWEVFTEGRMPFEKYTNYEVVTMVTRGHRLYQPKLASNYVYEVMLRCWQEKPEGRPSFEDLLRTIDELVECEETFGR
# Excerpt: as §1
# FLT3(ITD, D835V) = conditions: 1 μM
# Excerpt: as §1
# EPHA7 = EPHA7 (Homo sapiens (Human), UniProt Q15375); conditions: read-out: percent control
# Excerpt: as §1
# PIK3CA(H1047L) = PIK3CA(H1047L) (Homo sapiens (Human), UniProt P42336, H1047L); conditions: read-out: percent control
# Excerpt: as §1
# TNIK = TNIK (Homo sapiens (Human), UniProt Q9UKE5); conditions: read-out: percent control
# Excerpt: as §1
# KIT-autoinhibited = KIT-autoinhibited (Homo sapiens (Human), UniProt P10721); conditions: read-out: percent control
# Excerpt: as §1
# PLK2 = PLK2 (Homo sapiens (Human), UniProt Q9NYY3); conditions: read-out: percent control
# Excerpt: as §1
# PFCDPK1(P.falciparum) = PFCDPK1(P.falciparum) (Plasmodium falciparum (isolate 3D7), UniProt P62344); conditions: read-out: percent control
# Excerpt: as §1
# RIPK4 = RIPK4 (Homo sapiens (Human), UniProt P57078); conditions: read-out: percent control
# Excerpt: as §1
# PIM1 = PIM1 (Homo sapiens (Human), UniProt P11309); conditions: read-out: percent control
# Chain of PIM1 (P11309 whole entry): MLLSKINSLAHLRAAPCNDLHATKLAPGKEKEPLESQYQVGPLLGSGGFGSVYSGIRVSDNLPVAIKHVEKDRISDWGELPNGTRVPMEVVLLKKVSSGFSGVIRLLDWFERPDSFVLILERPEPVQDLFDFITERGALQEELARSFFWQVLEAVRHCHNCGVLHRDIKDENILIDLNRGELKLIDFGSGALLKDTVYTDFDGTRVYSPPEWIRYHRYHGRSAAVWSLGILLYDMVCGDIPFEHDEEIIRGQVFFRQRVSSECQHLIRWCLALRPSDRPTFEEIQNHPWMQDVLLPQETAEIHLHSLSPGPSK
# Excerpt: as §1
# CDKL5 = CDKL5 (Homo sapiens (Human), UniProt O76039); conditions: read-out: percent control
# Excerpt: as §1
# NEK6 = NEK6 (Homo sapiens (Human), UniProt Q9HC98); conditions: read-out: percent control
# Excerpt: as §1
# EPHB2 = EPHB2 (Homo sapiens (Human), UniProt P29323); conditions: read-out: percent control
# Excerpt: as §1
# MARK1 = MARK1 (Homo sapiens (Human), UniProt Q9P0L2); conditions: read-out: percent control
# Excerpt: as §1
# GRK3 = GRK3 (Homo sapiens (Human), UniProt P35626); conditions: read-out: percent control
# Excerpt: as §1
# KIT(A829P) = KIT(A829P) (Homo sapiens (Human), UniProt P10721, A829P); conditions: read-out: percent control
# Excerpt: as §1
# GRK7 = GRK7 (Homo sapiens (Human), UniProt Q8WTQ7); conditions: read-out: percent control
# Excerpt: as §1
# MAPKAPK2 = MAPKAPK2 (Homo sapiens (Human), UniProt P49137); conditions: read-out: percent control
# Excerpt: as §1
# [1] = biological target: ABL1(E255K)-phosphorylated (Homo sapiens (Human), UniProt P00519, E255K); conditions: read-out: percent control
# Excerpt: as §1
# PHKG2 = PHKG2 (Homo sapiens (Human), UniProt P15735); conditions: read-out: percent control
# Excerpt: as §1
# NLK = NLK (Homo sapiens (Human), UniProt Q9UBE8); conditions: read-out: percent control
# Excerpt: as §1
# PIM3 = PIM3 (Homo sapiens (Human), UniProt Q86V86); conditions: read-out: percent control
# Excerpt: as §1
# MET(M1250T) = MET(M1250T) (Homo sapiens (Human), UniProt P08581, M1250T); conditions: read-out: percent control
# Chain of MET(M1250T) (P08581 25-1390 M1250T): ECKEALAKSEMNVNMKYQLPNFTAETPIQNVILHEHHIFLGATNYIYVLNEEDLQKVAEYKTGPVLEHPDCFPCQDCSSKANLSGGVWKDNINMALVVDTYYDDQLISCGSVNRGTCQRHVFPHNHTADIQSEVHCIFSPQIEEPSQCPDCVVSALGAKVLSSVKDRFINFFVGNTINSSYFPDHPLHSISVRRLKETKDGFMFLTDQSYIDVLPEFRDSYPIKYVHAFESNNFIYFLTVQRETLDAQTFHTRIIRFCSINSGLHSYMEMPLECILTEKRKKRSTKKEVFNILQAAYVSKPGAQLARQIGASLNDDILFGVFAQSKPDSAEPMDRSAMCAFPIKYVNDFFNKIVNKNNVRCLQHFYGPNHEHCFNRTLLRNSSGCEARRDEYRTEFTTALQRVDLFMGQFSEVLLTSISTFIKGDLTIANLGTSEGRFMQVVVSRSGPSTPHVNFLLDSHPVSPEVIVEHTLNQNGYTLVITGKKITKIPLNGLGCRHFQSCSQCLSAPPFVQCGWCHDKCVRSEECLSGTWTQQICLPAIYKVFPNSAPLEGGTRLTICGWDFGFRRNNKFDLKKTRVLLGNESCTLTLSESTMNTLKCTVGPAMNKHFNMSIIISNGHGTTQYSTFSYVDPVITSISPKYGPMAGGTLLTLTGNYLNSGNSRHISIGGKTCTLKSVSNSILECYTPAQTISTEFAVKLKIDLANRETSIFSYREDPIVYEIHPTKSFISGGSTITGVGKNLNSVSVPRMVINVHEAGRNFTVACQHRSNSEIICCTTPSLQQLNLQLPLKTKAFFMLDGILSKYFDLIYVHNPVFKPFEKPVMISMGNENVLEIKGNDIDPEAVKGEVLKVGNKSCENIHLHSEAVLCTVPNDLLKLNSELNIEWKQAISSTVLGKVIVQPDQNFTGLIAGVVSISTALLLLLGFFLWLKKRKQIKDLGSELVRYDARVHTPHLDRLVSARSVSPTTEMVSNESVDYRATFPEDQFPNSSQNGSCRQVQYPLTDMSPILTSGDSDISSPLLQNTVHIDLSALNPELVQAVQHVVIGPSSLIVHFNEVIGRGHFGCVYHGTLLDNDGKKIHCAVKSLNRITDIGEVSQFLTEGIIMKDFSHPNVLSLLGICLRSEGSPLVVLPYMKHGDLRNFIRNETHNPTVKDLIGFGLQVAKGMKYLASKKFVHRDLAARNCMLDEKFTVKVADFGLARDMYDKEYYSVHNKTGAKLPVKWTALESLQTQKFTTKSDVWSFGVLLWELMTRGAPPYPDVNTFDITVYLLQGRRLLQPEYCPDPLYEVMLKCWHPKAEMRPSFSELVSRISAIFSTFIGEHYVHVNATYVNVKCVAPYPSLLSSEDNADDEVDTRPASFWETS
# Excerpt: as §1
# FYN = FYN (Homo sapiens (Human), UniProt P06241); conditions: read-out: percent control
# Excerpt: as §1
# MAST1 = MAST1 (Homo sapiens (Human), UniProt Q9Y2H9); conditions: read-out: percent control
# Excerpt: as §1
# CHEK1 = CHEK1 (Homo sapiens (Human), UniProt O14757); conditions: read-out: percent control
# Excerpt: as §1
# PRKCQ = PRKCQ (Homo sapiens (Human), UniProt Q04759); conditions: read-out: percent control
# Excerpt: as §1
# YANK3 = YANK3 (Homo sapiens (Human), UniProt Q86UX6); conditions: read-out: percent control
# Chain of YANK3 (Q86UX6 whole entry): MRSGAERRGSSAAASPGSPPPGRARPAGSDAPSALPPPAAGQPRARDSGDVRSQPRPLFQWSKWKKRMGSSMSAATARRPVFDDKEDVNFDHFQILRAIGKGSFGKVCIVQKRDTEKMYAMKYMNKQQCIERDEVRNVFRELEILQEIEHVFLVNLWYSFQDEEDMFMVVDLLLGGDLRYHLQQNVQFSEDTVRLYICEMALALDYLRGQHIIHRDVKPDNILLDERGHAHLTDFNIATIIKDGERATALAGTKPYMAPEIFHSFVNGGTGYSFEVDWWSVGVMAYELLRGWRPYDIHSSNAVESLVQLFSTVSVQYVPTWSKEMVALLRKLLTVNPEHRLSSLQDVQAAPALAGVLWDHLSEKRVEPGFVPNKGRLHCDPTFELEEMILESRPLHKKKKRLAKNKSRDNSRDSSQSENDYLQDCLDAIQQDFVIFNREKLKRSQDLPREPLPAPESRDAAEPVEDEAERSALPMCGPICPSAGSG
# Excerpt: as §1
# ABL1-nonphosphorylated = ABL1-nonphosphorylated (Homo sapiens (Human), UniProt P00519); conditions: read-out: percent control
# Excerpt: as §1
# Chain of MLK2 (Q02779 whole entry): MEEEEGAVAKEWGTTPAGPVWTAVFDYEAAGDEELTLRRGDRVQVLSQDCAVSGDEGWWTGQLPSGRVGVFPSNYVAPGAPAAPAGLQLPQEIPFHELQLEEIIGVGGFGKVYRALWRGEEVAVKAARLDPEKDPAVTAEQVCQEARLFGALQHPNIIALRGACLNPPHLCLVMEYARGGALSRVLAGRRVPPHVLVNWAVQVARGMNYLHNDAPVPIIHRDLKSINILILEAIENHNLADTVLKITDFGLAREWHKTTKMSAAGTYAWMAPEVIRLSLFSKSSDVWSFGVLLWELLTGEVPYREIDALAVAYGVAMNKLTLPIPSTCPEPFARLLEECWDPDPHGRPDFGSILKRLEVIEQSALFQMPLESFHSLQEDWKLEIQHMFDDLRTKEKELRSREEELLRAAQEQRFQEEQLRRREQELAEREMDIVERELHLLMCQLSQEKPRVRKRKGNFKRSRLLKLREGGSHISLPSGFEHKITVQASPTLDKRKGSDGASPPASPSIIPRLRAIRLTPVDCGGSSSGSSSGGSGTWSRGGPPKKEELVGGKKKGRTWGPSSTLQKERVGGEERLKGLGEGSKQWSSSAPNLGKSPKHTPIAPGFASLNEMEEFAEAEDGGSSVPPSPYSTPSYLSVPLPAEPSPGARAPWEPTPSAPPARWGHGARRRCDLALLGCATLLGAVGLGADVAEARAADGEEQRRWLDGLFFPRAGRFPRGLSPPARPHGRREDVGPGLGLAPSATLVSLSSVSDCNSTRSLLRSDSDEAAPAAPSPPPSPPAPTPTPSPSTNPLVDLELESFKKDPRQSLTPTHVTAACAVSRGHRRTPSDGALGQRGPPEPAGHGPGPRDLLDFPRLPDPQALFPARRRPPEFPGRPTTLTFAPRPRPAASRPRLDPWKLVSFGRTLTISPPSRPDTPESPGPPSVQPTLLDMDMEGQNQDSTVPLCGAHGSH
SMILES,remaining binding at 1 µM (MLK2) [%],remaining binding at 1 µM (LRRK2(G20195)) [%],remaining binding at 1 µM (KIT(V559D)) [%],remaining binding at 1 µM (WNK1) [%],remaining binding at 1 µM (TIE1) [%],remaining binding at 1 µM (TRKB) [%],remaining binding at 1 µM (WEE2) [%],remaining binding at 1 µM (p38-beta) [%],remaining binding at 1 µM (PRKD3) [%],remaining binding at 1 µM (p38-gamma) [%],remaining binding at 1 µM (PIK3CA(E542K)) [%],remaining binding at 1 µM (TEC) [%],"percent control (FLT3(ITD, D835V)) [%]",remaining binding at 1 µM (EPHA7) [%],remaining binding at 1 µM (PIK3CA(H1047L)) [%],remaining binding at 1 µM (TNIK) [%],remaining binding at 1 µM (KIT-autoinhibited) [%],remaining binding at 1 µM (PLK2) [%],remaining binding at 1 µM (PFCDPK1(P.falciparum)) [%],remaining binding at 1 µM (RIPK4) [%],further results
CCN1CCN(Cc2ccc(Nc3nc4ccc(Oc5ccnc(NC(C)=O)c5)cc4n3C)cc2C(F)(F)F)CC1 [Compound I-2],100,100,0,100,11,36,100,100,84,58,100,78,100,93,73,53,76,94,77,86,remaining binding at 1 µM (PIM1): 100%; remaining binding at 1 µM (CDKL5): 96%; remaining binding at 1 µM (NEK6): 93%; remaining binding at 1 µM (EPHB2): 81%; remaining binding at 1 µM (MARK1): 98%; remaining binding at 1 µM (GRK3): 100%; remaining binding at 1 µM (KIT(A829P)): 0%; remaining binding at 1 µM (GRK7): 88%; remaining binding at 1 µM (MAPKAPK2): 78%; remaining binding at 1 µM [1]: 30%; remaining binding at 1 µM (PHKG2): 85%; remaining binding at 1 µM (NLK): 84%; remaining binding at 1 µM (PIM3): 93%; remaining binding at 1 µM (MET(M1250T)): 63%; remaining binding at 1 µM (FYN): 80%; remaining binding at 1 µM (MAST1): 74%; remaining binding at 1 µM (CHEK1): 100%; remaining binding at 1 µM (PRKCQ): 67%; remaining binding at 1 µM (YANK3): 100%; remaining binding at 1 µM (ABL1-nonphosphorylated): 0.3%
"CCN1CCN(Cc2ccc(Nc3nc4ccc(Oc5ccnc(NC(C)=O)c5)c(C)c4n3C)cc2C(F)(F)F)CC1 [Compound I-6, N-(4-(2-(4-((4-ethylpiperazin-1-yl)methyl)-3-(trifluoromethyl)phenylamino)-1,7-dimethyl-1H-benzo[d]imidazol-6-yloxy)pyridin-2-yl)acetamide]",95,69,0.15,100,4,1.4,100,94,92,62,100,100,61,99,85,75,82,71,65,97,remaining binding at 1 µM (PIM1): 98%; remaining binding at 1 µM (CDKL5): 92%; remaining binding at 1 µM (NEK6): 99%; remaining binding at 1 µM (EPHB2): 100%; remaining binding at 1 µM (MARK1): 92%; remaining binding at 1 µM (GRK3): 79%; remaining binding at 1 µM (KIT(A829P)): 0%; remaining binding at 1 µM (GRK7): 95%; remaining binding at 1 µM (MAPKAPK2): 100%; remaining binding at 1 µM [1]: 33%; remaining binding at 1 µM (PHKG2): 100%; remaining binding at 1 µM (NLK): 40%; remaining binding at 1 µM (PIM3): 86%; remaining binding at 1 µM (MET(M1250T)): 33%; remaining binding at 1 µM (FYN): 49%; remaining binding at 1 µM (MAST1): 100%; remaining binding at 1 µM (CHEK1): 100%; remaining binding at 1 µM (PRKCQ): 97%; remaining binding at 1 µM (YANK3): 89%; remaining binding at 1 µM (ABL1-nonphosphorylated): 0.05%
